Measurements reported in US20080293727A1, “Novel sulfonamide inhibitors of aspartyl protease” (priority 1992, published 2008).

Biological target: HIV-1 protease (Human immunodeficiency virus type 1 group M subtype B, UniProt P04585)
Test: Inhibition constants against HIV-1 protease (method of Pennington et al.)
Assay type: biochemical
Details: HIV-1 protease; read-out: Ki value
Source text: We measured the inhibition constants of the compounds listed in Table VII against HIV-1 protease using the above-cited method of Pennington et al.

| Structure (SMILES) | Ki [nM] |
| --- | --- |
| CC(=O)Nc1ccc(S(=O)(=O)N(CC(C)C)C[C@@H](O)[C@H](Cc2ccccc2)NC(=O)NCc2ccccc2)cc1 [Compound 33] | 80 |
| COCCOC(=O)N[C@@H](Cc1ccccc1)[C@H](O)CN(CC(C)C)S(=O)(=O)c1ccc(NC(C)=O)cc1 [Compound 34] | 17 |
| CC(C)CN(C[C@@H](O)[C@H](Cc1ccccc1)NC(=O)O[C@H]1CCOC1)S(=O)(=O)c1ccc(F)cc1 [Compound 35, 4-Fluoro-N-((2 syn,3S)-2-hydroxy-4-phenyl-3-((S)-tetrahydrofuran-3-yloxycarbonylamino)-butyl)-N-isobutyl-benzenesulfonamide] | 4 |
| C=CCCOC(=O)N[C@@H](Cc1ccccc1)[C@H](O)CN(CC(C)C)S(=O)(=O)c1ccc(NC(C)=O)cc1 [Compound 36] | 19 |
| CC(C)CN(C[C@@H](O)[C@H](Cc1ccccc1)NC(=O)O[C@H]1CCOC1)S(=O)(=O)c1ccc(Cl)c(Cl)c1 [Compound 37, 3,4-Dichloro-N-((2 syn,3S)-2-hydroxy-4-phenyl-3-((S)-tetrahydrofuran-3-yloxycarbonylamino)-butyl)-N-isobutyl-benzenesulfonamide] | 0.1 |
| CC(C)CN(C[C@@H](O)[C@H](Cc1ccccc1)NC(=O)OCc1ccccc1)S(=O)(=O)c1ccc(F)cc1 [Compound 38] | 1.5 |
| CC(=O)Nc1ccc(S(=O)(=O)N(CC(C)C)C[C@@H](O)[C@H](Cc2ccccc2)NC(=O)OC(C)(C)C)cc1 [Compound 39] | 17 |
| CC(=O)Nc1ccc(S(=O)(=O)N(CC(C)C)C[C@@H](O)[C@H](Cc2ccccc2)NC(=O)[C@@H]2CC(=O)NC(=O)N2)cc1 [Compound 40] | 1100 |
| CC(=O)Nc1ccc(S(=O)(=O)N(CC(C)C)C[C@@H](O)[C@H](Cc2ccccc2)NC(=O)C(=O)NC(C)(C)C)cc1 [Compound 41] | 220 |
| CC(=O)Nc1ccc(S(=O)(=O)N(CC(C)C)C[C@@H](O)[C@H](Cc2ccccc2)NC(=O)CCC(N)=O)cc1 [Compound 42] | 46 |
| CC(=O)Nc1ccc(S(=O)(=O)N(CC(C)C)C[C@@H](O)[C@H](Cc2ccccc2)NC(=O)[C@@H]2CCC(=O)N2)cc1 [Compound 43] | 4200 |
| CC(=O)Nc1ccc(S(=O)(=O)N(CC(C)C)C[C@@H](O)[C@H](Cc2ccccc2)NC(=O)OCc2cccnc2)cc1 [Compound 44, N-(4-(((2 syn,3S)-2-Hydroxy-4-phenyl-3-(pyridin-3-yl-methoxycarbonylamino)-butyl)-isobutyl-sulfamoyl)-phenyl)-acetamide] | 5 |
| CC(C)CN(C[C@@H](O)[C@H](Cc1ccccc1)NC(=O)OC(C)(C)C)S(=O)(=O)c1ccccc1 [Compound 45] | 6 |
| Cc1nc(C)c(S(=O)(=O)N(CC(C)C)C[C@@H](O)[C@H](Cc2ccccc2)NC(=O)OC(C)(C)C)s1 [Compound 46] | 154 |
| CC(=O)Nc1ccc(S(=O)(=O)N(CC(C)C)C[C@@H](O)[C@H](Cc2ccccc2)NC(=O)O[C@H]2CCOC2)cc1 [Compound 48, N-(4-(((2 syn,3S)-2-Hydroxy-4-phenyl-3-((S)-tetrahydrofuran-3-yloxycarbonylamino)-butyl)-isobutyl-sulfamoyl)-phenyl)-acetamide] | 1.4 |
| CC(C)CN(C[C@@H](O)[C@H](Cc1ccccc1)NC(=O)OC(C)(C)C)S(=O)(=O)c1ccc(F)cc1F [Compound 49] | 9 |
| CC(=O)Nc1ccc(S(=O)(=O)N(CC(C)C)C[C@@H](O)[C@H](Cc2ccccc2)NC(=O)O[C@H]2CCOC2)cc1Cl [Compound 53] | 27 |
| CC(=O)Nc1cc(S(=O)(=O)N(CC(C)C)C[C@@H](O)[C@H](Cc2ccccc2)NC(=O)OC(C)(C)C)ccc1F [Compound 54] | 22 |
| CC(=O)Nc1cc(S(=O)(=O)N(CC(C)C)C[C@@H](O)[C@H](Cc2ccccc2)NC(=O)c2cc(C(C)(C)C)nn2Cc2ccccc2)ccc1F [Compound 55] | 430 |
| CC(C)CN(C[C@@H](O)[C@H](Cc1ccccc1)NC(=O)O[C@@H](C)c1ccccc1)S(=O)(=O)c1cccc2nonc12 [Compound 56] | 60 |
| CC(C)CN(C[C@@H](O)[C@H](Cc1ccccc1)NC(=O)COc1ccccc1)S(=O)(=O)c1cccc2nonc12 [Compound 57] | 200 |
| CC(C)CN(C[C@@H](O)[C@H](Cc1ccccc1)NC(=O)OC(C)(C)C)S(=O)(=O)c1cccc2nonc12 [Compound 58] | 34 |
| CC(C)CN(C[C@@H](O)[C@H](Cc1ccccc1)NC(=O)O[C@H](C)c1ccccc1)S(=O)(=O)c1cccc2nonc12 [Compound 59] | 206 |
| CC(C)CN(C[C@@H](O)[C@H](Cc1ccccc1)NC(=O)O[C@H]1CCOC1)S(=O)(=O)c1cccc2nonc12 [Compound 60] | 4 |
| CC(=O)Nc1ccc(S(=O)(=O)N(CC(C)C)C[C@@H](O)[C@H](Cc2ccccc2)NC(=O)OCc2ccccc2)cc1 [Compound 61] | 4 |

| Structure (SMILES) | Ki [nM] |
| --- | --- |
| CC(C)CN(C[C@@H](O)[C@H](Cc1ccccc1)NC(=O)OCc1ccccc1)S(=O)(=O)c1ccc(N)c([N+](=O)[O-])c1 [Compound 63] | 7 |
| CC(C)CN(C[C@@H](O)[C@H](Cc1ccccc1)NC(=O)OC(C)(C)C)S(=O)(=O)c1ccc2nonc2c1 [Compound 64] | 3 |
| CC(C)CN(C[C@@H](O)[C@H](Cc1ccccc1)NC(=O)OCc1ccccc1)S(=O)(=O)c1ccc2nonc2c1 [Compound 65] | 0.7 |
| CC(C)CN(C[C@@H](O)[C@H](Cc1ccccc1)NC(=O)O[C@H]1CCOC1)S(=O)(=O)c1ccc2nonc2c1 [Compound 66] | 0.4 |
| CC(=O)Nc1ccc(S(=O)(=O)N(CC(C)C)C[C@@H](O)[C@H](Cc2ccccc2)NC(=O)C(NC(N)=O)NC(N)=O)cc1 [Compound 67] | 7400 |
| CC(C)CN(C[C@@H](O)[C@H](Cc1ccccc1)NC(=O)O[C@H]1CCOC1)S(=O)(=O)N(C)C [Compound 69] | 42 |
| CC(=O)Nc1cc(S(=O)(=O)N[C@@H](Cc2ccccc2)[C@H](O)CN(CC(C)C)S(=O)(=O)c2ccc(F)c(NC(C)=O)c2)ccc1F [Compound 70] | 25 |
| CC(C)CN(C[C@@H](O)[C@H](Cc1ccccc1)NS(=O)(=O)N(C)C)S(=O)(=O)c1cccc2nonc12 [Compound 71] | 470 |
| CC(C)CN(C[C@@H](O)[C@H](Cc1ccccc1)NS(=O)(=O)N(C)C)S(=O)(=O)N(C)C [Compound 72] | 4000 |
| COc1ccc(OC)c(S(=O)(=O)N[C@@H](Cc2ccccc2)[C@H](O)CN(CC(C)C)S(=O)(=O)c2ccc(F)c(NC(C)=O)c2)c1 [Compound 73] | 140 |
| CC(C)(C)OC(=O)N[C@@H](Cc1ccccc1)[C@H](O)CN(CC1CC1)S(=O)(=O)c1ccc(F)cc1 [Compound 74] | 11 |
| C=CCOC(=O)N[C@@H](Cc1ccccc1)[C@H](O)CN(CC(C)C)S(=O)(=O)c1ccc(Cl)c(Cl)c1 [Compound 81] | 2.3 |
| CC(C)CN(C[C@@H](O)[C@H](Cc1ccccc1)NC(=O)OCc1cccnc1)S(=O)(=O)c1ccc2nonc2c1 [Compound 82] | 1.5 |
| CC(C)(C)OC(=O)N[C@@H](Cc1ccccc1)[C@H](O)CN(CC1CCCC1)S(=O)(=O)c1ccc(Cl)c(Cl)c1 [Compound 84] | 1.4 |
| CC(=O)Nc1cc(S(=O)(=O)N(CC(C)C)C[C@@H](O)[C@H](Cc2ccccc2)NC(=O)O[C@H]2CCOC2)ccc1F [Compound 88, N-(2-Fluoro-5-(((2 syn,3S)-2-hydroxy-4-phenyl-3-((S)-tetrahydrofuran-3-yloxycarbonylamino)-butyl)-isobutyl-sulfamoyl)-phenyl)-acetamide] | 1.4 |
| CCCOC(=O)N[C@@H](Cc1ccccc1)[C@H](O)CN(CC(C)C)S(=O)(=O)c1ccc(Cl)c(Cl)c1 [Compound 89] | 2 |
| CCCOC(=O)N[C@@H](Cc1ccccc1)[C@H](O)CN(CC(C)C)S(=O)(=O)c1ccc(NC(C)=O)c(Cl)c1 [Compound 90] | 93 |
| CC(=O)Nc1cccc(S(=O)(=O)N(CC(C)C)C[C@@H](O)[C@H](Cc2ccccc2)NC(=O)O[C@H]2CCOC2)c1 [Compound 91, N-(3-(((2 syn,3S)-2-Hydroxy-4-phenyl-3-((S)-tetrahydrofuran-3-yloxycarbonylamino)-butyl)-isobutyl-sulfamoyl)-phenyl)-acetamide] | 2.5 |
| CC(C)CN(C[C@@H](O)[C@H](Cc1ccccc1)NC(=O)O[C@@H]1CCOC1)S(=O)(=O)c1ccc(F)cc1 [Compound 93, 4-Fluoro-N-((2 syn,3S)-2-hydroxy-4-phenyl-3-((R)-tetrahydrofuran-3-yloxycarbonylamino)-butyl)-N-isobutyl-benzenesulfonamide] | 0.8 |
| CC(=O)Nc1ccc(S(=O)(=O)N(CC(C)C)C[C@@H](O)[C@H](Cc2ccccc2)NC(=O)O[C@@H]2CCOC2)cc1 [Compound 94, N-(4-(((syn)-2-Hydroxy-(S)-4-phenyl-3-((tetrahydro-furan-(R)-3-yl)-oxycarbonylamino)-butyl)-isobutyl-sulfamoyl)-phenyl)-acetamide] | 1.7 |
| CC(C)CN(C[C@@H](O)[C@H](Cc1ccccc1)NC(=O)O[C@H]1CCOC1)S(=O)(=O)c1cc(Cl)c(Cl)s1 [Compound 95] | 1.3 |
| CC(=O)Nc1ccc(COC(=O)N[C@@H](Cc2ccccc2)[C@H](O)CN(CC(C)C)S(=O)(=O)c2ccc(NC(C)=O)cc2)cc1 [Compound 96] | 8 |
| CC(C)CN(C[C@@H](O)[C@H](Cc1ccccc1)NC(=O)OCc1cccnc1)S(=O)(=O)c1ccc(F)cc1 [Compound 98, 4-Fluoro-N-((2 syn,3S)-2-hydroxy-4-phenyl-3-(pyridin-3-yl-methoxycarbonylamino)-butyl)-N-isobutyl-benzenesulfonamide] | 0.5 |
| CC(C)CN(C[C@@H](O)[C@H](Cc1ccccc1)NC(=O)O[C@H]1CCOC1)S(=O)(=O)c1ccc(Cl)cc1 [Compound 99, 4-Chloro-N-((2 syn,3S)-2-hydroxy-4-phenyl-3-((S)-tetrahydrofuran-3-yloxycarbonylamino)-butyl)-isobutyl-benzenesulfonamide] | 0.24 |
| COc1ccc(S(=O)(=O)N(CC(C)C)C[C@@H](O)[C@H](Cc2ccccc2)NC(=O)O[C@H]2CCOC2)cc1 [Compound 100, N-((2 syn,3S)-2-Hydroxy-4-phenyl-3-((S)-tetrahydrofuran-3-yloxycarbonylamino)-butyl)-N-isobutyl-4-methoxy-benzenesulfonamide] | 0.16 |
